Source: patent publication US5968526A, “T cell epitopes of the major allergens from Dermatophagoides (house dust mite)” (Immulogic Pharamaceutical Corporation, priority 1995, dated 1999)

Legend:
[1] = system: T cell cultures reactive with Der p I from house dust mite-allergic subjects; assay: secondary T cell proliferation assay, Group I (Der p I) overlapping and candidate/unique peptides; percent of T cell reactivity; type: cell-based, human; conditions: patient 1733; highest S.I. ≥2.0 recorded
From the text: To determine whether a peptide (candidate peptide) or a combination of candidate peptides are likely to comprise a sufficient percentage of the T cell reactivity of house dust mite protein allergens, to induce T cell nonresponsiveness in a substantial percentage of a population of individuals sensitive to house dust mite allergen, an algorithm can be used. In accordance with one such algorithm, a set of overlapping peptides is produced by systematically dividing the protein allergen(s) of interest into al least two overlapping peptide regions of desired lengths (e.g., of about 12-30 amino acid residues in length, preferably not longer than about 25 amino acid residues in length with about 5-15 amino acid residues of overlap). This division into peptide regions can be arbitrary, can be made according to an algorithm, or can be wholly or partially based on regions of house dust mite Group I and/or Group II protein allergens known to comprise at least one T cell epitope. Preferably, at least 50% of the entire house dust mite protein allergen sequence and more preferably, the entire house dust mite protein allergen sequence is divided into two or more peptides. A human T cell stimulation index is determined for each of the peptides in an in vitro T cell proliferation assay as described herein for each individual tested in a population of individuals sensitive to the protein antigen. For example both WO93/08279 and WO94/24281 disclose T cell studies with overlapping peptides derived from Der p I, Der p II, Der f I and Der f II. A candidate peptide or combination of candidate peptides is selected based, at least in part, on the mean human T cell stimulation index of the candidate peptide in the set of peptides tested and the positivity index of the candidate peptide in the set of peptides tested (see, FIGS. 3 and 4). The human T cell stimulation index for the candidate peptide(s) is summed. For each individual, the human T cell stimulation index for the candidate peptide(s) is divided by the sum of the human T cells stimulation indices of the remaining peptides in the set of peptides tested to determine a percent of T cell reactivity as shown below:
Alternatively, the presence of T cell epitopes in the candidate peptide dependent on amino acids residues in an overlapping peptide located at either the N-terminus or C-terminus of the candidate peptide in the amino acid sequence of the protein antigen, but which epitopes are not present in the candidate peptide can be considered in calculating the percent of T cell reactivity in the candidate peptide by use of the following formula: [formula]
In this formula, "NT flanking peptide" refers to a peptide which comprises amino acid residues which overlap with amino acid residues located at the N-terminus of the candidate peptide in the amino acid sequence of the protein antigen from which the peptide is derived; "CT flanking peptide" refers to a peptide which comprises amino acid residues which overlap with amino acid residues located a the C-terminus of the candidate peptide in the amino acid sequence of the protein antigen from which the peptide is derived. In this calculation stimulation indices for the candidate peptide, the N-terminal flanking peptide and the C-terminal flanking peptide are added and divided by the sum total of the stimulation indices for the entire set of overlapping peptides obtain a percent of T cell reactivity for the candidate peptide. If a combination of two or more candidate peptides is selected each of which contains amino acid residues which overlap, this calculation cannot be used to determine a percent of T cell reactivity for each candidate peptide separately. However, a total percent of T cell reactivity for the combination of candidate peptides can be obtained. In this situation, the stimulation indices for all of the candidate peptides which overlap is included in the calculation. […]

[2] = system: T cell lines primed in vitro to Der f I; assay: secondary proliferation of Der f I-primed T cell lines (Examples VI, VII, XI); type: cell-based, human; conditions: Der f I primed; 8 positive experiments; FIG. 8
Outline: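 PBMC from house dust mite-allergic patients were primed in vitro with recombinant or affinity-purified Der f I at 20 μg/ml (or 10 μg/ml), then rechallenged with Der f I peptides. Antigen-presenting cells were x-irradiated autologous PBMC (3500 Rads) or EBV-transformed B cells (25,000 Rads). Read-out was T cell proliferation.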

human IgE = assay: direct binding ELISA of IgE to mite allergen proteins and peptides; conditions: data not shown
Experimental: The coating antigens were removed and the wells are blocked with 0.5% gelatin in PBS, 300 μl/well for 2 hours at room temperature. Pooled human plasma (a mix of plasma samples from 20 patients that were skin test positive for commerical mite extract) was serially diluted with PBS-Tween 20 (PBS with 0.05% nonionic detergent Tween-20 Sigma, St. Louis, Mo.) and 100 μl/well a.backslash.was added and incubated overnight at 4° C. (plasma dilutions were tested in duplicate). The second antibody (biotinylated goat anti-Human IgE, 1:1000, Kirkegaard & Perry Laboratories Inc, Gaithersburg, Md.), was added at 100 μl/well for one hour at room temperature. This solution was removed and streptavidin-HRPO, 1:10000, (Southern Biotechnology Associates, Inc., Birmingham, Ala.) was then added at 100 μl/well for one hour at room temperature (all wells are washed three times with PBS-Tween between each incubation step). TMB Membrane Peroxidase Substrate system (Kirkegaard & Perry Laboratories) was freshly miced, and added at […]. The color was allowed to develop for 2-5 minutes. The reaction was stopped by the addition of […] of 1M phosphoric acid. Plates were read on a Microplate IL310 Autoreader (Biotech Instruments, Winooski, Vt.) with a 450 nm filter. The absorbance levels of duplicate wells were averaged. The order of coating antigens listed vertically in these figure legends corresponds in orDer from left to right to the coating antigens listed for each histogram.
The antigen preparation that was used as a positive control was a mixture of the four major biochemically purified mite allergens (term PMA for Purified Mite Allergen); Der f I, Der f II, Der p I and Der p II. The stock was generated at a concentration of 100 μgs of each protein per millimeter or 400 μgs total protein/ml. This preparation was used on each coated ELISA plate.

mast cells or basophils = assay: histamine release; type: cell-based, human; conditions: data not shown
Experimental: To determine whether a peptide which binds IgE results in the release of mediators, a histamine release assay can be performed using standard reagents and protocols obtained for example, from Amac, Inc. (Westbrook, Me.). Briefly, a buffered solution of a peptide to be tested is combined with an equal volume of whole heparinized blood from an allergic subject. After mixing and incubation, the cells are pelleted and the supernatants are processed and analyzed using a radioimmunoassay to determine the amount of histamine released.

pH-solubility profile = type: physicochemical; conditions: at a pH in the range pH 6 to pH 8
Experimental: (§1) 50 mM sodium phosphate stock solutions:
(§2) Stock solution A: 0.66 g […] of monobasic sodium phosphate monohydrate U.S.P. and 50 mg EDTA disodium dihydrate, U.S.P. were dissolved in 100 mL of WFI. The solution was filtered through a 0.2 micron filter
(§3) Stock solution B: 0.71 g […] of dibasic sodium phosphate U.S.P. were disolved in 100 ml WFI. The solution was filtered through a 0.2 micron filter.
(§4) 2. Initial peptide dispersions
(§5) Dispersion A: 3.0 mg of each candidate peptide,DPI-21.2 (SEQ. ID. NO. 28), DFI-22.2 (SEQ. ID. NO. 93), DFI-23.31(SEQ. ID. NO. 165), DFI-26.6 (SEQ. ID. NO. 168), DPII-20.9 (SEQ. ID. NO. 169), DPII-22.14 (SEQ. ID. NO. 180) and DPII-25.15 (SEQ. ID. NO. 188), was weighed out separately and placed in separate 1.5 mL eppendoff vials with 600 μL of stock solution A. The composition was agitated for 1 seconds to mix well.
(§6) Dispersion B: 3.0 mg of each peptide, DPI-21.2 (SEQ. ID. NO. 28), DFI-22.2 (SEQ. ID. NO. 93), DFI-23.31(SEQ. ID. NO. 165), DFI-26.6 (SEQ. ID. NO. 168), DPII-20.9 (SEQ. ID. NO. 169), DPII-22.14 (SEQ. ID. NO. 180) and DPII-25.15 (SEQ. ID. NO. 188), was weighed out separately and placed in separate 1.5 mL eppendoff vials with 600 μL of stock solution B. The mixture was agitated for 5 seconds to mix well.
(§7) Dispersions A and B were sonicated for 2 minutes for good homogeneity. A small volume was pipetted from each dispersion into a labeled eppendoff vial according to the following volume ratio:
(§8) The resultant solutions/suspensions were stored in the dark at about 22° C.±2 for 24 hours without agitation. The solutions were filtered and filtrates were analyzed for pH and peptide concentration.
(§9) The concentration of filtered peptide solutions was determined by HPLC analysis. In this experiment, the solubility of peptide at each pH is defined as the amount of peptide remaining in solution after filtration through a membrane filter having a 0.2 micrometer pore size. The extent of degradation of peptides was estimated by calculating the percent of total degradant peak area over the total peak area.
The pH values with respect to the solubility values was plotted and are shown in FIG. 37 for each respective peptide. As shown in the solubility curve for each peptide as represented in FIG. 37, peptides DPI-21.2 (SEQ. ID. NO. 28), DFI-22.2 (SEQ. ID. NO. 93), DFI-23.31 (SEQ. ID. NO. 165), DFI-26.6 (SEQ. ID. NO. 168), DPII-20.9 (SEQ. ID. NO. 169), DPII-22.14 (SEQ. ID. NO. 180) and DPII-25.15 (SEQ. ID. NO. 188) are each soluble at greater than 3 mg/ml at a pH in the pH range of pH 6 to pH 8.

[3] = pH-stability profile / solution stability (HPLC); type: physicochemical; conditions: pH 6 to pH 8
Experimental: as §1, §2, §3, §4, §5, §6, §7, §8, §9
The pH-stability profiles for each peptide DPI-21.2 (SEQ. ID. NO. 28), DFI-22.2 (SEQ. ID. NO. 93), DFI-23.31(SEQ. ID. NO. 165), DFI-26.6 (SEQ. ID. NO. 168), DPII-20.9 (SEQ. ID. NO. 169), DPII-22.14 (SEQ. ID. NO. 180) and DPII-25.15 (SEQ. ID. NO. 188) in equal concentration combination at 3, 2, and 1 mg/ml per peptide and prepared in duplicate as described above with one set stored at about 5° C. for 24 hours and one set stored at about 22° C.±2 for 24 hours, were calculated and tabulated as a function of the percentage of total of degradant peak area (FIG. 38).

[4] = system: T cell lines primed in vitro to Der p I; assay: secondary proliferation of Der p I-primed T cell lines (Examples V, VII, XI); type: cell-based, human; conditions: for T cell reactivity: overlapping Der p I peptides
Outline: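 PBMC were primed with native or recombinant Der p I (10 or 20 μg/ml) for 7 days, then expanded with IL-2 and IL-4. Resting T cells (2×10^4) were cultured 3 days with irradiated autologous EBV-B cells or PBMC and titrated protein or peptides, then pulsed 16 h with 1 μCi ³H-thymidine. S.I. was peak-response CPM over medium-only CPM, with S.I. ≥2.0 scored positive.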

[5] = system: PBMC from mite-allergic patient; assay: primary T cell (PBMC) proliferation, mite-allergic patient, tritiated thymidine; type: cell-based, human; conditions: medium 1071 ± 30
Outline: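 Ficoll-purified PBMC (5×10^4/well, triplicate) from one mite-allergic donor cultured 7 days at 37 °C with graded concentrations of purified Der p I, Der p II or their peptides in RPMI-1640 plus 5% human AB serum. 1 μCi ^3H-thymidine added for 16 h; CPM counted, stimulation index = antigen CPM/medium-only CPM.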

Substance | T cell stimulation index (S.I.) [1] | T cell reactivity ([4]; 33 positive experiments) | other results
DP I-14: Der p I peptide (QSCRRPNAQRFGISNYCQI) | 2.3 |  | T cell response to Der p I peptides [2]: respond significantly
DP I-15: Der p I peptide (RFGISNYCQIYPPNANKIREAL) | 2.8 |  | T cell response to Der p I peptides [2]: respond significantly
DP II-25.15: modified Der p II peptide; unique peptide (DEETVKVMGDDGVLACAIATHAKIRDEE) |  |  | IgE reactivity, candidate peptides (human IgE): negative; histamine release (mast cells or basophils): negative; solubility (pH-solubility profile): greater than 3 mg/ml; stability (in words) [3]: acceptable solution stability
DP I-6.1: Der p I peptide (YPPNANKIREALAQTHSAIAVIIG) | 2.1 | significant regions of T cell reactivity | 
DP I-7.1: Der p I peptide (AQTHSAIAVIIGIKDLDAFRHYDGRT) | 2.2 | significant regions of T cell reactivity | 
DP I-10: Der p I peptide (QGVDYWIVRNSWDTNWGDNGYGYF) | 0 | significant regions of T cell reactivity | CPM ± S.D. ([5]; 10 μg/ml): 1936 ± 50 CPM; CPM ± S.D. ([5]; 30 μg/ml): 3042 ± 89 CPM; CPM ± S.D. ([5]; 100 μg/ml): 2644 ± 63 CPM
DP I-12.1: Der p I peptide, native sequence (ELVDCASQHGCHGDTIPRGIE) | 2.2 |  | difference in mean S.I. or percentage of positive responses, original vs additional (native sequence) peptides ([4]; DP I-11/12 vs DP I-11.1/12.1): no significant difference
DP I-9: Der p I peptide (IIQRDNGYQPNYHAVNIVGYSNA) | 2.4 | significant regions of T cell reactivity | 
DP I-22.2: Der p I peptide (VAATESAYLAHRNQSLDLAEQELVD) | 3.1 |  | T cell response to selected Der p I peptides ([4]; 33 positive experiments, FIG. 13): respond significantly
